PMC10746543, “Design principles for cyclin K molecular glue degraders” (Nature Chemical Biology, 2023)
Several values for one entry are separate records, joined by “and”; a condition that tells them apart may be missing. Equal values may be shown once. Read-outs that look alike come from different tables or passages of the source.

Key:
[1] = test system: cyclin K–eGFP degradation reporter; test: Cyclin K reporter stability analysis (dual-color cyclin K–eGFP reporter); type: cell-based, human; settings: source data sheet correlations; read-out: DC50
Procedure, shortened: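 HEK293T–Cas9 cells carrying the cyclin K–eGFP reporter were seeded at 1 × 10^6 ml^−1 and exposed to drug or DMSO for 5 h. Flow cytometry gave geometric means of eGFP and mCherry in round, mCherry-positive cells. The eGFP/mCherry ratio was normalized to the mean of three DMSO controls.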

HEK293T cells = test: Drug sensitivity assay (CellTiter-Glo viability) with or without MLN4924 pretreatment; type: cell-based, human; settings: for EC50: Homo sapiens, HEK-293T; for Toxicity rescue: MLN4924-mediated cytotoxicity rescue, 10 µM used where n.d.
Procedure, shortened: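 Viability of HEK293T–Cas9 cells was compared after 3-day drug treatment with or without 100 nM MLN4924 pretreatment (2 h, versus DMSO). Values are CellTiter-Glo signals relative to DMSO controls.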

CDK12–cyclin K and DDB1 = molecular target: T1, CDK12–cyclin K and DDB1 (Homo sapiens, UniProt Q16531+Q9NYV4, K965R); test: TR-FRET ternary complex formation assay (compound titration); type: binding; settings: for TR-FRET signal at compound concentration: replicate titrations
T1 construct: His6–CDK12 (a.a. 713–1,052); full-length or beta-propeller B domain deletion (ΔBPB: a.a. 396–705 deleted) constructs of His6–DDB1ΔBPB, StrepII–Avi–DDB1, or His6–Spy–DDB1; made in house; host or cells: Trichoplusia ni High Five insect cells (baculovirus)
Procedure, shortened: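 Delayed (70 μs) time-resolved read; FRET computed as 520 nm over 490 nm emission.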

[2] = Supplementary Table 2, HEK293T viability, 72 h, compound alone, read-out: Cellular assays EC50
[3] = compound concentration 0.468 nM
[4] = compound concentration 7.92001 nM
[5] = compound concentration 15.84 nM
[6] = compound concentration 30.96 nM
[7] = compound concentration 62.6401 nM
[8] = compound concentration 125.28 nM
[9] = compound concentration 244.8 nM
[10] = compound concentration 993.601 nM
[11] = compound concentration 2001.6 nM
[12] = in vitro complex formation, 50 nM CDK12–cyclin K, 100 nM DDB1, text and figures, read-out: TR-FRET EC50
[13] = source data sheet correlations, read-out: TR-FRET EC50

T1 sequence (Q9NYV4 713-1052 K965R): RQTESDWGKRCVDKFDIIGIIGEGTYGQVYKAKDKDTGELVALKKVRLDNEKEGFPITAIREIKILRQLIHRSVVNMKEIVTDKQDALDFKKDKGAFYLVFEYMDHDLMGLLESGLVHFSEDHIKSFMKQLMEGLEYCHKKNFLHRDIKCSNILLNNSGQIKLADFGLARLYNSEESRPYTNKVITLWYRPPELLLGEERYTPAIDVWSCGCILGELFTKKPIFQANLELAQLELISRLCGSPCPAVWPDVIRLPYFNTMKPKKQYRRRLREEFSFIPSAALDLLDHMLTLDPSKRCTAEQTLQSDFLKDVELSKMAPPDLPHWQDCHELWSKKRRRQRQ
T1 sequence (O75909 1-267 partner): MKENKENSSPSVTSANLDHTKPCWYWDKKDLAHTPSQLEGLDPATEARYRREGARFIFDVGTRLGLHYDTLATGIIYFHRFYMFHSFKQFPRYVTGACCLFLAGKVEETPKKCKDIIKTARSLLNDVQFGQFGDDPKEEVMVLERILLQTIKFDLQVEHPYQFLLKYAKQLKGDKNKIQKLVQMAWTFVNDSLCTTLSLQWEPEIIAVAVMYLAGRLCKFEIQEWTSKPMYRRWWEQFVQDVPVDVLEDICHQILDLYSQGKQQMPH
T1 sequence (Q16531 whole entry): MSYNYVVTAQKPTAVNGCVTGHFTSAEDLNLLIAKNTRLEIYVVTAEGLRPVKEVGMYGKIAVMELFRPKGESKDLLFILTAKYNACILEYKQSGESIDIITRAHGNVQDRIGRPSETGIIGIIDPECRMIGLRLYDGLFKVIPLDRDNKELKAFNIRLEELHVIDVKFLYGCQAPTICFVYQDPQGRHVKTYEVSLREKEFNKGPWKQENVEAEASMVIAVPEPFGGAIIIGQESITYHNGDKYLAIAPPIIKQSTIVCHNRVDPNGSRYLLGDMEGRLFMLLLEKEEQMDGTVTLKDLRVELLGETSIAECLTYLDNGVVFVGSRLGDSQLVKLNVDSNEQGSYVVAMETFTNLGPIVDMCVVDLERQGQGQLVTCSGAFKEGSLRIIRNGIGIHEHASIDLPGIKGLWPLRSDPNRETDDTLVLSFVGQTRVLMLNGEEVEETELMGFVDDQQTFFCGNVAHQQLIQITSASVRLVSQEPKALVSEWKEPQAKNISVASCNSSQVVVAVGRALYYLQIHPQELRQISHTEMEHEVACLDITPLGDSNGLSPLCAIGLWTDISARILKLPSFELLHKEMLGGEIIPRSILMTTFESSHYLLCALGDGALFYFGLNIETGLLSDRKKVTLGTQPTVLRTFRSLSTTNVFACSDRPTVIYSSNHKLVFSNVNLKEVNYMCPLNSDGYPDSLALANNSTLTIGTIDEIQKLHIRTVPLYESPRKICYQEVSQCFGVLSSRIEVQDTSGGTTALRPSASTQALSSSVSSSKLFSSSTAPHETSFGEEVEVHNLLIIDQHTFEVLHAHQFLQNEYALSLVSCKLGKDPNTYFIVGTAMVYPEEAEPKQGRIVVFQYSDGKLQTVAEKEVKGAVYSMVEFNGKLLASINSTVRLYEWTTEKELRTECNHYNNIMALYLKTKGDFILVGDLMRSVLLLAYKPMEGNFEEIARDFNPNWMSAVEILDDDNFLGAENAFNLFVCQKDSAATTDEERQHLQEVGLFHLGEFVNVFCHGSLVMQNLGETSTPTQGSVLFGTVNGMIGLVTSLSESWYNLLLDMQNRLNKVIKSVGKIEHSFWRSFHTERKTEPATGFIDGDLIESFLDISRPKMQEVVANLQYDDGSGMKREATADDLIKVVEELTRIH

Compound | DC50 [1] [µM] | EC50 (HEK293T cells; [2]) [µM] | Toxicity rescue (HEK293T cells; Supplementary Table 2) [%] | TR-FRET signal at compound concentration (CDK12–cyclin K and DDB1; [3]) | TR-FRET signal at compound concentration (CDK12–cyclin K and DDB1; compound concentration 2.16 nM) | TR-FRET signal at compound concentration (CDK12–cyclin K and DDB1; compound concentration 3.6 nM) | TR-FRET signal at compound concentration (CDK12–cyclin K and DDB1; [4]) | TR-FRET signal at compound concentration (CDK12–cyclin K and DDB1; [5]) | TR-FRET signal at compound concentration (CDK12–cyclin K and DDB1; [6]) | TR-FRET signal at compound concentration (CDK12–cyclin K and DDB1; [7]) | TR-FRET signal at compound concentration (CDK12–cyclin K and DDB1; [8]) | TR-FRET signal at compound concentration (CDK12–cyclin K and DDB1; [9]) | TR-FRET signal at compound concentration (CDK12–cyclin K and DDB1; [10]) | TR-FRET signal at compound concentration (CDK12–cyclin K and DDB1; [11]) | EC50 (CDK12–cyclin K and DDB1; [12]) [µM] | EC50 (CDK12–cyclin K and DDB1; [13]) [µM] | also measured
CCc1cccc(CCCNc2nc(N[C@H](CC)CO)nc3c2ncn3C(C)C)c1 [DS67] | 0.219 | 0.517 | 819 | 0.3354 and 0.3368 | 0.4163 and 0.4021 | 0.5886 and 0.5847 | 0.9073 and 0.903 | 1.493 and 1.552 | 2.297 and 2.228 | 3.049 and 3.013 | 3.561 and 3.406 | 3.933 and 3.877 | 4.034 and 4.0558 | 4.271 and 4.04 | 0.031 ± 0.001 | 0.0305 | EC50 (CDK12–cyclin K and DDB1; sheet MOESM7, read-out: log TR-FRET EC50 (converted)): 0.0305 µM
CC[C@H](CO)Nc1nc(NCCCc2cccc(O)c2)c2ncn(C(C)C)c2n1 [DS68] | 0.571 | 2.52 | 296 | 0.3136 and 0.2898 | 0.3334 and 0.33 | 0.3697 and 0.368 | 0.4418 and 0.4327 | 0.566 and 0.543 | 0.7892 and 0.7403 | 1.141 and 1.026 | 1.566 and 1.513 | 2.027 and 2.001 | 2.439 and 2.564 | 2.241 and 2.631 | 0.104 ± 0.007 | 0.104 | EC50 (HEK293T cells; Supplementary Fig. 5, HEK293T, CellTiter Glo, 72h, pre-treatment with 100 nM MLN4924, read-out: Viability EC50, with MLN4924): 109 µM; TR-FRET signal (CDK12–cyclin K and DDB1; [3]): 0.3136 and 0.2898; TR-FRET signal (CDK12–cyclin K and DDB1; compound concentration 2.16 nM): 0.3334 and 0.33; TR-FRET signal (CDK12–cyclin K and DDB1; compound concentration 3.6 nM): 0.3697 and 0.368; TR-FRET signal (CDK12–cyclin K and DDB1; [4]): 0.4418 and 0.4327; TR-FRET signal (CDK12–cyclin K and DDB1; [5]): 0.566 and 0.543; TR-FRET signal (CDK12–cyclin K and DDB1; [6]): 0.7892 and 0.7403; TR-FRET signal (CDK12–cyclin K and DDB1; [7]): 1.141 and 1.026; TR-FRET signal (CDK12–cyclin K and DDB1; [8]): 1.566 and 1.513; TR-FRET signal (CDK12–cyclin K and DDB1; [9]): 2.027 and 2.001; TR-FRET signal (CDK12–cyclin K and DDB1; [10]): 2.439 and 2.564; TR-FRET signal (CDK12–cyclin K and DDB1; [11]): 2.241 and 2.631
